# Test results taken from patent US9163030B2 (priority 2012, dated 2015).
# Where two headings read alike, the source gives them in different places.
# Columns and labels:
# [1] = biological target: KOR; settings: brain tissue membranes, included for comparison; read-out: Ki ± SEM KOR; cited from earlier work
# [2] = biological target: MOR; settings: brain tissue membranes, included for comparison; read-out: Ki ± SEM MOR; cited from earlier work
# [3] = biological target: DOR; settings: brain tissue membranes, included for comparison; read-out: Ki ± SEM DOR; cited from earlier work
# [4] = biological target: T1, CHO cells co-expressing MOR and DOR (dimer cells) (UniProt P32300+P35372); experiment: cell-based; type: cell-based, human μ / mouse δ; design: Emax: dose or concentration left out as unconfirmed; settings: for Emax: CHO, read-out: decrease of the Emax value for DAMGO-mediated inhibition of forskolin-stimulated cAMP
# T1 construct: cMyc (N); expressed in transfected cells; host or cells: CHO (cMyc-mδ-HμCHO cells)
# [5] = biological target: T2, MOR (Homo sapiens, UniProt P35372); experiment: Opioid binding assay, displacement of [3H]DAMGO, hMOR-CHO cell membranes
# T2 construct: expressed in transfected cells; host or cells: CHO (hMOR-CHO)
# [6] = biological target: T1, CHO cells co-expressing MOR and DOR (dimer cells); type: cell-based, human μ / mouse δ
# [7] = biological target: T3, KOR (Homo sapiens, UniProt P41145); experiment: [35S]GTP-γ-S binding assay, hKOR-CHO cells; type: biochemical
# T3 construct: expressed in transfected cells; host or cells: CHO (hKOR-CHO)
# [8] = biological target: T2, MOR; experiment: [35S]GTP-γ-S binding assay, hMOR-CHO cells; type: biochemical; settings: for Emax: normalized to stimulation by DAMGO, read-out: agonist activity MOR Emax
# [9] = biological target: T4, DOR (Homo sapiens, UniProt P41143); experiment: Opioid binding assay, displacement of [3H]DADLE, hDOR-CHO cell membranes
# T4 construct: expressed in transfected cells; host or cells: CHO (hDOR-CHO)
# [10] = biological target: T3, KOR; experiment: biochemical; type: binding
# [11] = tested on: mice; experiment: 55° C. warm-water tail-withdrawal test; type: in vivo, mouse; settings: for Antinociceptive A50 Values / antinociceptive effect: icv; for Antinociceptive A50 Values: calculated at time of peak effect; for antinociceptive effect: in words; for effect of naloxone pretreatment on antinociceptive effect: naloxone 10 mg/kg ip, -10 min, icv test compound
# [12] = tested on: mice; experiment: Tolerance regimen, repeated icv injection, warm-water tail-withdrawal; settings: repeated injection paradigm
# [13] = biological target: T5, DOR (Mus musculus, UniProt P32300); experiment: [35S]GTP-γ-S binding assay, NG108-15 cells; type: biochemical; settings: for functional activity profile at DOR: in words
# T5 construct: endogenous in cells; host or cells: NG108-15 neuroblastoma x glioma cells
# [14] = stimulation of [35S]GTP-γ-S binding, no stim = no stimulation
# T5 sequence (P32300 whole entry): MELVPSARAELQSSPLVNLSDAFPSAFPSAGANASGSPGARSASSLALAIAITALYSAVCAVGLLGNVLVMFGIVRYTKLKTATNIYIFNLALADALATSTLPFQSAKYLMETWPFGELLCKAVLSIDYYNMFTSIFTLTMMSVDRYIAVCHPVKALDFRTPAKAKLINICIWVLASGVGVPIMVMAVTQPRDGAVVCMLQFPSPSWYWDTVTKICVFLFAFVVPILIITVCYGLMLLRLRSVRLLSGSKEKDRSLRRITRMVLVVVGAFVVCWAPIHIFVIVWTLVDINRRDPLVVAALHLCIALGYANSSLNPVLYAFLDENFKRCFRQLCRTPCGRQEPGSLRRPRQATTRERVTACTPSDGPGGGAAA
# T3 sequence (P41145 whole entry): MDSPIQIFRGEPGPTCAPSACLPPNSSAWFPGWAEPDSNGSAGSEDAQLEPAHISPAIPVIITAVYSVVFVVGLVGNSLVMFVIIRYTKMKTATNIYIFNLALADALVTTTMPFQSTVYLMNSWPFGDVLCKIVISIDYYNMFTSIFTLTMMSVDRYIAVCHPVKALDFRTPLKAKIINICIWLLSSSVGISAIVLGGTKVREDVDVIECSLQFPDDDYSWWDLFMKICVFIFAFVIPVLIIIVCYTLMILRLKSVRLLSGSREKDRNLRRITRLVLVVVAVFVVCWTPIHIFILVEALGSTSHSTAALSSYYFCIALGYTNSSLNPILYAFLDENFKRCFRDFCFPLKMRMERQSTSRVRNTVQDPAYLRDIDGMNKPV
# T2 sequence (P35372 whole entry): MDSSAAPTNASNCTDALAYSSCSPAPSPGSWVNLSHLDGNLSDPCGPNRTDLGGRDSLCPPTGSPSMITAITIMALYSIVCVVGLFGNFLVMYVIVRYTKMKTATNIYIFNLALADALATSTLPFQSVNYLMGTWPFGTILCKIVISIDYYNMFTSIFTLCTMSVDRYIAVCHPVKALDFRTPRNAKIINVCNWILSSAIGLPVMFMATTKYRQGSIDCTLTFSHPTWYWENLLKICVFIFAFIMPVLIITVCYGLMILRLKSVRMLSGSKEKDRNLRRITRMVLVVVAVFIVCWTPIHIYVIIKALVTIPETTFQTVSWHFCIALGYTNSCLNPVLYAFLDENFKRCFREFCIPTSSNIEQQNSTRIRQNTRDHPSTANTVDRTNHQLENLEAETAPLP
# T1 sequence (P35372 whole entry): as above
# T1 sequence (P32300 whole entry): as the sequence (P32300 whole entry) above
# T4 sequence (P41143 whole entry): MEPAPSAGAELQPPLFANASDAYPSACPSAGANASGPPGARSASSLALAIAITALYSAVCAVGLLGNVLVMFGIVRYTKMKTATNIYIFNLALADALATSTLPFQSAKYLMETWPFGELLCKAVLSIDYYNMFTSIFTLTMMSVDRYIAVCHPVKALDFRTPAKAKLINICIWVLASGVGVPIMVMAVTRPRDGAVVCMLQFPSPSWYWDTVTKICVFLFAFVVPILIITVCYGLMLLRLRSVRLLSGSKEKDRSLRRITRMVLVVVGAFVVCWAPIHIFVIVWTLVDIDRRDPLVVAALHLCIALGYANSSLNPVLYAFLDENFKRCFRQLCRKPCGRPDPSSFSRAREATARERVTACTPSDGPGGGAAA
structure (smiles),measurement,setting,value
CN1CCC23c4c5ccc(O)c4OC2c2ncc(-c4ccc(Cl)cc4)cc2CC3(O)C1C5 (stereo not shown) [Compound 9],Ki,[1],468 ± 17 nM
same,Ki,[2],230 ± 10 nM
same,Ki,[3],3.9 ± 0.2 nM
"CN1CCC23c4c5ccc(O)c4OC2c2ncc(-c4ccc(Cl)cc4)cc2CC3(OCCCc2ccccc2)C1C5 (stereo not drawn) [Compound 17h, 5′-(4-Chlorophenyl)-6,7-didehydro-4,5α-epoxy-3-hydroxy-17-methyl-14-(3-phenylpropoxy)pyrido[2′,3′:6,7]morphinan]",increase in the EC50 value for DAMGO-mediated inhibition of forskolin-stimulated cAMP accumulation (tolerance),[4],~7 fold
same,Emax,[4],20%
same,Ki,[5],0.54 ± 0.04 nM
same,selectivity ratio MOR/DOR,"[5]; ratio of Ki values, CHO membranes",0.52
same,cAMP superactivation (forskolin-stimulated cAMP accumulation after chronic treatment),[6],effects similar to that of morphine
same,naloxone-induced cAMP overshoot,[6],effects similar to that of morphine
same,agonist activity KOR EC50,[7]; [14],no stim
same,EC50,[8],2.15 nM
same,Emax,[8],125 ± 2%
same,Ki,[9],1.04 ± 0.08 nM
same,selectivity ratio KOR/DOR,[10],1.5
same,Ki,[10]; read-out: Ki ± SEM KOR,1.53 ± 0.1 nM
same,Antinociceptive A50 Values,[11],0.23 nmol
same,antinociceptive effect,[11],full antinociceptive effects
same,effect of naloxone pretreatment on antinociceptive effect,[11],blocked by naloxone pretreatment
same,toxicity on repeated administration,[12],undue toxicity
same,functional activity profile at DOR,[13],weak to potent partial agonist activity at DOR
same,Emax,[13]; read-out: agonist activity DOR Emax,85%
"Oc1ccc2c3c1OC1c4ncc(-c5ccc(Cl)cc5)cc4CC4(OCCCc5ccccc5)C(C2)N(CC2CC2)CCC314 (stereo not drawn) [Compound 17d, 5′-(4-Chlorophenyl)-17-(cyclopropylmethyl)-6,7-didehydro-4,5α-epoxy-3-hydroxy-14-(3-phenylpropoxy)pyrido[2′,3′:6,7]morphinan]",increase in the EC50 value for DAMGO-mediated inhibition of forskolin-stimulated cAMP accumulation (tolerance),[4],did not produce either tolerance
same,Emax,[4],40%
same,cAMP superactivation (forskolin-stimulated cAMP accumulation after chronic treatment),"[6]; 20 h treatment, washed, forskolin/IBMX 100 μM/500 μM",did not
same,naloxone-induced cAMP overshoot,"[6]; 20 h treatment, washed, forskolin/IBMX plus 10 μM naloxone",did not
same,functional activity profile at KOR,[7]; in words,devoid of agonist activity at KOR
same,functional activity profile at MOR,[8]; in words,agonist profile at MOR
same,Emax,[8],72%
same,Antinociceptive A50 Values,[11],0.35 nmol
same,antinociceptive effect,[11],full antinociceptive effects
same,effect of naloxone pretreatment on antinociceptive effect,[11],blocked by naloxone pretreatment
same,functional activity profile at DOR,[13],antagonists at DOR
same,antagonist activity DOR Ke,[13]; shift in EC50 of standard agonist,0.091 nM
same,agonist activity DOR EC50,[13]; [14],no stim
